Tested on: amyloid deposits in heart tissue, lung tissue, bladder tissue, lymph node tissue and bone from a subject with AL amyloidosis
Assay: Imaging of tissues from AL amyloidosis subject: staining of paraffin sections, viewed with a UV filter set
Format: binding
Conditions: 100 nM stain, 60 min, deparaffinized paraffin sections from a subject with AL amyloidosis, FIG. 1
Description: Paraffin sections of heart, lung, bladder, lymph node and bone from a subject with AL amyloidosis were deparaffinized in xylene and stained with 100 nM X-34 [Styren et al. J Histochem Cytochem 48:1223-1232 (2000)] in 20% ethanol/80% 150 mM Tris Buffer (pH 7.4) or 100 nM 2-(4′-methylaminophenyl)-6-cyanobenzothiazole (6-CN-BTA-1) [Mathis et al. J Med Chem 46:2740-2754 (2003)] in PBS (pH 7.4) for 60 min followed by a brief, 5 second wash in water followed by coverslipping and viewing with an UV filter set (FIG. 1).

SMILES | binding to amyloid deposits in heart tissue, lung tissue, bladder tissue, lymph node tissue and bone
CNc1ccc(-c2nc3ccc(C#N)cc3s2)cc1 [Example 6-CN-BTA-1, 2-(4′-methylaminophenyl)-6-cyanobenzothiazole] | binding
O=C(O)c1cc(/C=C/c2ccc(/C=C/c3ccc(O)c(C(=O)O)c3)cc2)ccc1O [Example X-34] | binding

From patent US20080305040A1, “In Vivo or in Vitro Method For Detecting Amyloid Deposits Having at Least One Amyloidogenic Protein” (UNIVERSITY OF PITTSBURGH, priority 2005, published 2008)
